Test results published in patent publication US11584744B2 (UNIVERSITY OF WASHINGTON, priority 2017, dated 2023).
Converted amounts (≈) assume the structure as drawn. Read-outs that look alike come from different tables or passages of the source.

Key:
[1] = test system: S. epidermidis (ATCC 49134); test: MIC susceptibility testing; assay type: cell-based; conditions: Staphylococcus epidermidis, ATCC49134; read-out: S. epidermidis (ATCC 49134) MIC
[2] = test system: S. epidermidis (ATCC 12228); test: MIC susceptibility testing; assay type: cell-based; conditions: Staphylococcus epidermidis, ATCC12228; read-out: S. epidermidis (ATCC 12228) MIC
S. pyogenes (ATCC 19615) = test: MIC susceptibility testing; assay type: cell-based; conditions: Streptococcus pyogenes
E. faecium (ATCC 19434) = test: MIC susceptibility testing; assay type: cell-based; conditions: Enterococcus faecium, ATCC19434; read-out: E. faecium (ATCC 19434) MIC
Procedure, shortened: (§1)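 CLSI broth microdilution in triplicate, 5×10^5 CFU/mL final, ≤0.5% DMSO; MHB for S. aureus, CA-MHB for E. coli and E. faecium, CA-MHB plus 3% laked horse blood for S. pyogenes (5% CO2).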

E. faecalis (ATCC 29212) = test: MIC susceptibility testing; assay type: cell-based; conditions: Enterococcus faecalis, ATCC29212; read-out: E. faecalis (ATCC 29212) MIC
[3] = test system: S. aureus MSSA (ATCC 29213); test: MIC susceptibility testing; assay type: cell-based, Staphylococcus aureus; conditions: for MIC: Staphylococcus aureus
[4] = test system: S. aureus MRSA (ATCC 33591); test: MIC susceptibility testing; assay type: cell-based, Staphylococcus aureus; conditions: for MIC: Staphylococcus aureus
Procedure, shortened: as §1

S. aureus (ATCC 29213) = test: Neutropenic murine S. aureus thigh infection model; assay type: in vivo, Staphylococcus aureus; conditions: 75 mg/kg orally ×2; for reduction of bacterial load below stasis level: neutropenic mouse
Description: Murine thigh infection model. Animal studies were approved by the Institutional Animal Care and Use Committee at the University of Washington, Seattle. Female specific pathogen free CD1 mice were obtained from Charles River (Wilmington, Mass.) weighing 23-27 grams and allowed at least 3 days to acclimate prior to study. Mice had access to food and water ad libitum. Neutropenia was induced by administering cyclophosphamide monohydrate (Sigma Aldrich C7397; St. Louis, Mo.) via IP injection 4 days (at 150 mg/kg) and 1 day (at 100 mg/kg) prior to infection. Neutropenic status was confirmed by neutrophil count <100 cells/mm^3.
Overnight culture of S. aureus (ATCC strain 29213) was diluted 1:100 in MHB and incubated until reaching mid-log phase (OD600<0.750). The inoculum was prepared by pelleting log-phase culture and re-suspending in sterile dPBS. The culture was adjusted to OD600 of 0.200 and diluted 1:100 in sterile dPBS correlating to an inoculum of ˜5*10^5 CFU/50 μL. The mice were infected by an intramuscular injection of 50 μL in the right posterior thigh while under isoflurane gas anesthesia. At 1 h post infection, one vehicle group was sacrificed for determination of initial inoculum ([…] level of infection). Mice were dosed at 2 and 12 h post-infection with test compounds (below); they received a SC dose of 5 mg/kg ketoprofen at 2 h post-infection for pain management. Mice were sacrificed at 24 h post-infection; the thigh muscle was sterilely removed, weighed, homogenized in 5 mLs dPBS, serially diluted, plated on tryptic soy agar in duplicate, and incubated overnight at 37° C. Colonies were counted to quantify the bacterial load in CFUs per gram of thigh tissue.
Vancomycin was given at 100 mg/kg SC in 100 μL in a 0.9% saline solution. […] Test compounds were administered PO in 200 μL of vehicle containing 60% Phosal 53 MCT (Lipoid, Ludwigshafen Germany), 30% PEG400 (Sigma Aldrich, St. Louis, Mo.), and 10% EtOH (Decon Laboratories, King of Prussia, Pa.).
Efficacy studies in mice: Selected compounds were tested for in vivo efficacy in the neutropenic S. aureus thigh infection model (9). Mice were immunosuppressed with cyclophosphamide then infected in a thigh with 5×10^5 S. aureus (ATCC 29213). Compounds were dosed orally with 75 mg/kg at 2 and 12 h post-infection. At 24 h, thighs were harvested for CFU counts.

[5] = Murine pharmacokinetics studies (oral, dried blood spots); assay type: in vivo, mice; conditions: 50 mg/kg single oral dose; for Cmax / AUC(0-t): mouse, whole blood (dried blood spots); for Cmax: po, 50 mg/kg, read-out: Mouse Oral PK DBS: Average Cmax; for AUC(0-t): read-out: Mouse Oral PK DBS: Average AUC(0-24 h) (converted)
Description: Murine pharmacokinetics studies. The methods were performed as previously described. Briefly, test compounds were administered to mice by oral gavage (3 mice per compound) followed by tail blood sampling at intervals of 30, 60, 120, 240, 360, 480, and 1440 min. Blood samples were analyzed by extracting dried blood spots in acetonitrile for measurements of compound concentrations by liquid chromatography/tandem mass spectrometry.
Pharmacokinetics studies: Selected compounds were administered to mice in single oral doses at 50 mg/kg and tail blood was sampled at time intervals out to 24 h to assess blood exposure (Table 9).

[6] = ATCC19615, 18 h, medium with 3% laked horse blood, read-out: S. pyogenes (ATCC 19615) MIC
[7] = 18 h, read-out: S. aureus MSSA (ATCC 29213) MIC
[8] = read-out: S. aureus MRSA (ATCC 33591) MIC
[9] = ATCC19615, S. pyogenes ATCC 19615, read-out: (H) S. pyogenes (ATCC 19615) MIC
[10] = MRSA ATCC33591, read-out: (G) MRSA (ATCC33591) MIC

Row | SMILES | MIC [1] [µg/mL] | MIC [2] [µg/mL] | MIC (S. pyogenes (ATCC 19615); [6]) [µg/mL] | MIC (E. faecium (ATCC 19434)) [µg/mL] | MIC (E. faecalis (ATCC 29212)) [µg/mL] | MIC [3, 7] [µg/mL] | MIC [4, 8] [µg/mL] | efficacy in thigh infection model (S. aureus (ATCC 29213)) | reduction of bacterial load below stasis level (S. aureus (ATCC 29213)) | MIC ([3]; read-out: MIC against S. aureus) [µg/mL] | Cmax [5] [ng/mL] | AUC(0-t) [5] [ng·h/mL] | MIC (S. pyogenes (ATCC 19615); [9]) [µg/mL] | (G) MRSA (ATCC33591) MIC ([4]; MRSA ATCC33591) | MIC [4, 10] [µg/mL] | (F) S. aureus (ATCC 29213) MIC ([3]; S. aureus ATCC 29213) [µg/mL] | MIC ([3]; S. aureus ATCC 29213, read-out: (F) S. aureus (ATCC 29213) MIC) [µg/mL] | Mouse Oral PK DBS: Average Cmax [5] [ng/mL]
1 | Fc1ccc2nc(NCCCNCc3cc(Cl)cc(Cl)c3)[nH]c2n1 [Compound 1614, [(3,5-dichlorophenyl)methyl][3-({5-fluoro-3H-imidazo[4,5-b]pyridin-2-yl}amino)propyl]amine] | 10 (≈ 27.2 µM) | 5 (≈ 13.6 µM) | > 10 | 0.625 (≈ 1.7 µM) | 1.25 (≈ 3.39 µM) | 2.5 (≈ 6.79 µM) | 5 (≈ 13.6 µM) |  |  |  |  |  |  |  |  |  |  | 
2 | Fc1ccc2nc(NCCCN[C@@H]3CCNc4c(Cl)cc(Cl)cc43)[nH]c2n1 [Compound 1717, (4R)-6,8-dichloro—N-[3-({5-fluoro-3H-imidazo[4,5-b]pyridin-2-yl}amino)propyl]-1,2,3,4-tetrahydroquinolin-4-amine, reference compound] | 0.313 (≈ 0.765 µM) | 0.156 (≈ 0.381 µM) | 2.5 (≈ 6.11 µM) | 0.039 (≈ 0.0953 µM) | 0.078 (≈ 0.191 µM) | 0.156 (≈ 0.381 µM) | 0.078 (≈ 0.191 µM) | significant reduction of bacterial load below the stasis level | approximately 2 log | 0.156 (≈ 0.381 µM) | ~1500 | 15700 |  |  |  |  |  | 
3 | CCn1c(Cc2ccc(Cl)cc2Cl)cn(Cc2nc3nc(F)ccc3[nH]2)c1=O [Compound 2062, 4-[(2,4-dichlorophenyl)methyl]-3-ethyl-1-({5-fluoro-1H-imidazo[4,5-b]pyridin-2-yl}methyl)-2,3-dihydro-1H-imidazol-2-one] | 1.25 (≈ 2.97 µM) |  |  | 0.313 (≈ 0.745 µM) | 1.25 (≈ 2.97 µM) | 0.078 (≈ 0.186 µM) |  |  |  |  |  |  |  |  |  |  |  | 
4 | CCn1c(Cc2ccc(OC)cc2Cl)cn(Cc2nc3nc(Cl)ccc3[nH]2)c1=O [Compound 2093, 1-({5-chloro-1H-imidazo[4,5-b]pyridin-2-yl}methyl)-4-[(2-chloro-4-methoxyphenyl)methyl]-3-ethyl-2,3-dihydro-1H-imidazol-2-one] | 1.25 (≈ 2.89 µM) | 0.625 (≈ 1.45 µM) | 1.25 (≈ 2.89 µM) | 0.078 (≈ 0.18 µM) | 0.156 (≈ 0.361 µM) | 0.039 (≈ 0.0902 µM) | 0.313 (≈ 0.724 µM) | weaker activity than the other MetRS inhibitors evaluated |  |  | 7570 ± 2290 | 20400 | 0.678 (≈ 1.57 µM) | 0.225 µg/mL | 0.123 (≈ 0.285 µM) |  |  | 
5 | CCn1c(Cc2ccc(OC)cc2Cl)cn(Cc2nc3nc(F)ccc3[nH]2)c1=O [Compound 2114, 4-[(2-chloro-4-methoxyphenyl)methyl]-3-ethyl-1-({5-fluoro-1H-imidazo[4,5-b]pyridin-2-yl}methyl)-2,3-dihydro-1H-imidazol-2-one] | 1.25 (≈ 3.01 µM) | 1.25 (≈ 3.01 µM) |  | 0.078 (≈ 0.188 µM) | 0.625 (≈ 1.5 µM) | 0.313 (≈ 0.753 µM) |  |  |  |  | 5450 ± 750 | 15000 | 0.754 (≈ 1.81 µM) |  | 1.53 (≈ 3.68 µM) | 0.192 | 0.129 (≈ 0.31 µM) | 
6 | COc1cc(Cl)c(-c2cccc3nc(Cc4nc5nc(Cl)ccc5[nH]4)cn23)cc1OC [Compound 2144, 2-({5-chloro-1H-imidazo[4,5-b]pyridin-2-yl}methyl)-5-(2-chloro-4,5-dimethoxyphenyl)imidazo[1,2-a]pyridine] | 0.313 (≈ 0.689 µM) | 0.156 (≈ 0.343 µM) | 1.25 (≈ 2.75 µM) | 0.0195 (≈ 0.0429 µM) | 0.0195 (≈ 0.0429 µM) | 0.0195 (≈ 0.0429 µM) | 0.039 (≈ 0.0858 µM) | significant reduction of bacterial load below the stasis level | approximately 2 log |  | ~9000 | 63200 |  | 0.0216, μg/mL | 0.033 (≈ 0.0726 µM) |  |  | 8950 ± 1380
7 | CC(=O)NC[C@H]1CN(c2ccc(N3CCOCC3)c(F)c2)C(=O)O1 [LNZ, linezolid] | 0.625 (≈ 1.85 µM) | 0.625 (≈ 1.85 µM) | 1.25 (≈ 3.71 µM) | 2.5 (≈ 7.41 µM) | 2.5 (≈ 7.41 µM) | 2.5 (≈ 7.41 µM) | 1.25 (≈ 3.71 µM) |  |  |  | 26500 ± 15200 | 94400 |  |  |  |  |  | 
